Like-named read-outs stand apart in the source and are kept apart here.
Tests used:
[1] = tested on: breast cancer (MCF-7) cell line; assay: MTT cytotoxicity assay, MCF-7; details: for Cell viability percentage, MCF-7: Table S2
Method: (§1) Cells were cultured in sterile Dulbecco’s Minimal Essential Medium (DMEM, Gibco) supplemented with 10% fetal bovine serum (FBS) and 1% penicillin-streptomycin solution. […] Cell counting was carried out using a handheld automated cell counter (Scapter 3.0™, Merck, Burlington, MA, USA) and seeded (1 × 10^4 cells/well) into a 96-well plate. After 24 h, the cells were treated with different concentrations (1, 5, 10, 25 and 50 µM) of the test compounds and reference standards prepared in DMEM. The MTT solution (20 μL) prepared in PBS (5 mg/mL) was added to all the wells, and the plates were incubated for 4 h, followed by 1 h incubation with 100 µL of dimethyl sulfoxide (DMSO) to dissolve the formazan crystals. Untreated cells and 5% DMSO were included in the experiment as negative controls. All experiments were performed in triplicate. The plates were read at 570 nm at a reference wavelength of 630 nm using an ELISA plate reader (Varioskan Flash, ThermoFisher Scientific, Vantaa, Finland). The percentage of cell viability was calculated using the following formula, Cell viability %=At/Ab×100 where At represents the absorbance value of test compound and Ab the absorbance value of the blank. […] The data were expressed as means ± SD.

[2] = DPPH radical scavenging assay; details: mean ± SD; 45 min in the dark; 512 nm
Method: The DPPH radical scavenging assay was conducted following the procedure described in our previous study. The test compounds and ascorbic acid at various concentrations (ranging from 0 µM to 50 µM) in DMSO were mixed with a solution of DPPH (0.20 mM) in methanol and incubated in the dark for 45 min. Five absorbance readings were recorded at 512 nm using an Elisa plate reader (Varioskan Flash, ThermoFisher Scientific, Vantaa, Finland). The experiment was carried out in triplicate, and averaged values from the absorbance readings were used to determine the IC50 and standard deviation values in GraphPad prism from nonlinear regression dose–response curves.

human α-amylase = target: T1, human α-amylase (Homo sapiens, UniProt P04746); assay: α-amylase inhibitor screening kit assay; assay type: biochemical; details: mean ± SD, triplicate; tested at 1, 5, 10, 25, 50 µM
T1 construct: purchased Abcam ab283391
T1 sequence (P04746 16-511): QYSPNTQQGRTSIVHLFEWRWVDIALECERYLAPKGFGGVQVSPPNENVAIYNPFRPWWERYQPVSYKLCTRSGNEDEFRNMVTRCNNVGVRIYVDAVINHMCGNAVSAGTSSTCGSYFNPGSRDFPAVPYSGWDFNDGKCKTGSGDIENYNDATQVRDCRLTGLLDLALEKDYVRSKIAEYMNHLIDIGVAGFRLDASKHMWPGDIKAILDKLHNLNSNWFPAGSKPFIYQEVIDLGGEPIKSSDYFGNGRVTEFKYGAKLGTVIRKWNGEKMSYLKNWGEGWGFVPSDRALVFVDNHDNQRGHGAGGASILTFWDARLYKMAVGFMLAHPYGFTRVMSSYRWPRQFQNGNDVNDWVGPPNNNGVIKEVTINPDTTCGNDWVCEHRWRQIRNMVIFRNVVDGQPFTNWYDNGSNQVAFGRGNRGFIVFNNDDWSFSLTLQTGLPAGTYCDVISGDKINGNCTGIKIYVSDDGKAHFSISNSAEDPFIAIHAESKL
Method: The α-amylase assay was performed in triplicate, using a 96-well plate following the procedure recommended by the manufacturer as outlined in the α-amylase inhibitor Screening Kit (Catalogue No. ab283391; Abcam). […] The average values obtained from the absorbance readings were used to determine the IC50 and standard deviation values in GraphPad prism from nonlinear regression dose–response curves.

[3] = tested on: human embryonic kidney (HEK293-T) cell line; assay: MTT cytotoxicity assay, HEK293-T; details: for IC50: read-out: IC50 Hek293-T; for Cell viability percentage, HEK293-T: Table S4
Method: as §1

[4] = MTT cytotoxicity assay, HEK293-T; details: human, HEK293-T cells
Method: as §1

[5] = NO free radical scavenging assay (sodium nitroprusside/Griess); details: mean ± SD; sodium nitroprusside, Griess reagent, 550 nm
Method: The assay was conducted following the method described in our previous study. A mixture of 10 mM sodium nitroprusside (20 µL), phosphate buffer (5 µL) and the test compound (5 µL) were incubated at 25 °C in a 96-well plate for 2.5 h. After incubation, 20 µL of Griess reagent (1.00 g of sulfanilic acid + 0.10 g naphthylethylene diamine dihydrochloride) was added to the previous mixture and allowed to stand for 30 min. […] Each experiment was performed in triplicate, and the average was taken. The average obtained from the absorbance readings was used to calculate the IC50 values in GraphPad prism from nonlinear regression dose–response curves.

[6] = tested on: lung cancer (A549) cell line; assay: MTT cytotoxicity assay, A549; details: for Cell viability percentage, A549: Table S3
[7] = target: T2, α-Glucosidase type 1 from baker's yeast (Saccharomyces cerevisiae, UniProt P53341); assay: biochemical; details: mean ± SD, triplicate, tested at 1, 5, 10, 25, 50 µM
T2 construct: purchased Sigma Aldrich (Pty) Ltd. G5003
T2 sequence (P53341 whole entry): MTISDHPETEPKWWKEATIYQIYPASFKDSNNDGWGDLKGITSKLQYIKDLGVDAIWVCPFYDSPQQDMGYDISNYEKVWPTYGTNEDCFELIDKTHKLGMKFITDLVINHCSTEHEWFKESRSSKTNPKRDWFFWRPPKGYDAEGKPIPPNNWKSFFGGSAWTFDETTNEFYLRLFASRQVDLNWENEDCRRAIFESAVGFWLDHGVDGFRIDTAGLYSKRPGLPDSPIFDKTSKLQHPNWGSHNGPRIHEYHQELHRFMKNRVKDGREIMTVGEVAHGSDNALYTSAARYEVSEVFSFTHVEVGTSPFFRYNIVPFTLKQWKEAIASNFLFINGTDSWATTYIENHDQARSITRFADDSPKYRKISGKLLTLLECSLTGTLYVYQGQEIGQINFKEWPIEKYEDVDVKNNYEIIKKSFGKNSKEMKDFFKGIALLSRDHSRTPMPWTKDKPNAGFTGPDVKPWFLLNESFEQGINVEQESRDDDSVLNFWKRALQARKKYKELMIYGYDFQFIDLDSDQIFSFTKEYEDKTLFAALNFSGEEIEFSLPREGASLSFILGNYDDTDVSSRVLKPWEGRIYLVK
Method: The assay was conducted in triplicate following a method described in our previous study. […] After pre-incubation, 17 µL of 2 mM PNP-G was added. The absorbances were recorded in a 96-well microplate at 400 nm using an Elisa plate reader (Varioskan Flash, ThermoFischer Scientific, Vantaa, Finland). The average values obtained from the readings were used to determine the IC50 and standard deviation values using a GraphPad Prism software (Version 8, GraphPad Software Inc., San Diego, CA, USA). The average values obtained from the absorbance readings were used to determine the IC50 and standard deviation values in GraphPad prism from nonlinear regression dose–response curves.

[8] = Homo sapiens, MCF7, read-out: IC50 MCF-7
[9] = Homo sapiens, A549, read-out: IC50 A549

| Compound | Cell viability percentage, MCF-7 ([1]; Conc. 1 (µM per method)) | Cell viability percentage, MCF-7 ([1]; Conc. 5 (µM per method)) | Cell viability percentage, MCF-7 ([1]; Conc. 10 (µM per method)) | Cell viability percentage, MCF-7 ([1]; Conc. 25 (µM per method)) | Cell viability percentage, MCF-7 ([1]; Conc. 50 (µM per method)) | IC50 [1, 8] [µM] | IC50 [2] [µM] | IC50 (human α-amylase) [µM] | IC50 ([3]; Homo sapiens, HEK-293T) [µM] | viability at 1 µM [4] [%] | viability at 5 µM [4] [%] | viability at 10 µM [4] [%] | viability at 25 µM [4] [%] | viability at 50 µM [4] [%] | IC50 [5] [µM] | Cell viability percentage, A549 ([6]; Conc. 1 (µM per method)) | Cell viability percentage, A549 ([6]; Conc. 5 (µM per method)) | Cell viability percentage, A549 ([6]; Conc. 10 (µM per method)) | Cell viability percentage, A549 ([6]; Conc. 25 (µM per method)) | IC50 [6, 9] [µM] | further results |
| --- | --- | --- | --- | --- | --- | --- | --- | --- | --- | --- | --- | --- | --- | --- | --- | --- | --- | --- | --- | --- | --- |
| CC1=[N+]([O-])C(c2ccccc2)Nc2c(Br)cc(I)cc21 (stereo not shown) [Compound 3m] | 25,998% | 24,1517% | 20,9415% | 20,6088% | 17,6314% | 15.34 ± 0.07 | 8.88 ± 0.011 | 16.73 ± 0.01 | 27.97 ± 0.08 | 81.2 | 75 | 51.1 | 42 | 19.1 | 55.39 ± 0.002 | 78,1978% | 68,6691% | 61,413% | 42,2995% | 16.34 ± 0.06 | melting point: 180 to 181 °C; Cell viability percentage, A549 ([6]; Conc. 50 (µM per method)): 30,0709%; IC50 ([7]; IC50 α-Glucosidase): 9.14 ± 0.03 µM |
| CC1=[N+]([O-])C(c2ccc(F)cc2)Nc2ccc(Br)cc21 (stereo not shown) [Compound 3b] | 39,7538% | 38,34% | 35,1963% | 33,8157% | 30,3061% | 12.8 ± 0.07 | 1.07 ± 0.048 | 36.35 ± 0.01 | 41.72 ± 0.04 | 41.6 | 41.3 | 40.3 | 38.5 | 35.8 | 15.1 ± 0.029 | 69,0066% | 60,8505% | 56,1818% | 42,7495% | 19.31 ± 0.08 | melting point: 183 to 185 °C; Cell viability percentage, A549 ([6]; Conc. 50 (µM per method)): 28,8446%; IC50 ([7]; IC50 α-Glucosidase): 7.47 ± 0.05 µM |
| CC1=[N+]([O-])C(c2ccc(Cl)cc2)Nc2c(I)cc(Br)cc21 (stereo not shown) [Compound 3k] | 42,1823% | 41,6001% | 39,6041% | 38,7891% | 38,1737% | 16.65 ± 0.05 | 4.08 ± 0.038 | 4.46 ± 0.02 | 21.04 ± 0.05 | 61.3 | 55.4 | 42.5 | 31.6 | 24 | 15 ± 0.005 | 78,5578% | 73,6416% | 60,0068% | 42,682% | 15.37 ± 0.13 | Cell viability percentage, A549 ([6]; Conc. 50 (µM per method)): 32,6808%; IC50 ([7]; read-out: IC50 α-Glucosidase): 13.47 ± 0.04 µM |
| COc1cccc2c1C(=O)c1c(O)c3c(c(O)c1C2=O)C[C@@](O)(C(=O)CO)C[C@@H]3O[C@H]1C[C@H](N)[C@H](O)[C@H](C)O1 [Doxorubicin, doxorubicin, reference compound] | – | – | – | – | – | 0.25 ± 0.05 | – | – | 0.87 ± 0.04 | – | – | – | – | – | – | – | – | – | – | 0.36 ± 0.07 | – |
| CC1=[N+]([O-])C(c2ccc(Cl)cc2)Nc2c(Br)cc(I)cc21 (stereo not shown) [Compound 3o] | 46,2908% | 41,6001% | 39,6041% | 38,7891% | 23,0428% | 16.5 ± 0.01 | 88.45 ± 0.009 | 49.18 ± 0.01 | 58.98 ± 0.17 | 45.2 | 44.6 | 44.4 | 44.2 | 37.7 | 23.25 ± 0.002 | – | – | – | – | 20 ± 0.05 | melting point: 140 to 142 °C; IC50 ([7]; IC50 α-Glucosidase): 7.07 ± 0.04 µM |
| CC1=[N+]([O-])C(c2ccc(F)cc2)Nc2c(I)cc(Br)cc21 (stereo not shown) [Compound 3j] | 60,354% | 53,8289% | 40,413% | 30,7493% | 22,7375% | 15.06 ± 0.01 | 61.01 ± 0.053 | 17.48 ± 0.03 | 32.83 ± 0.06 | 67.6 | 72.8 | 54.5 | 33.9 | 19.4 | 5.17 ± 0.007 | 79,064% | 67,1729% | 57,7455% | 42,6257% | 13.7 ± 0.12 | melting point: 170 to 173 °C; Cell viability percentage, A549 ([6]; Conc. 50 (µM per method)): 29,7109%; IC50 ([7]; IC50 α-Glucosidase): 19.69 ± 0.01 µM |
| CC1=[N+]([O-])C(c2ccccc2)Nc2ccc(I)cc21 (stereo not shown) [Compound 3e] | 27,8443% | 22,0559% | 23,6194% | 19,7272% | 17,2488% | 15.83 ± 0.14 | 1.1 ± 0.031 | 49.5 ± 0.06 | 20.12 ± 0.06 | 69.7 | 60 | 40 | 31.9 | 20 | 52.38 ± 0.003 | 74,9578% | 64,338% | 52,0419% | 40,2408% | 11.4 ± 0.12 | melting point: 184 to 186 °C; Cell viability percentage, A549 ([6]; Conc. 50 (µM per method)): 30,3184%; IC50 ([7]; IC50 α-Glucosidase): 6.04 ± 0.01 µM |
| CC1=[N+]([O-])C(c2ccc(Cl)cc2)Nc2ccc(I)cc21 (racemic) [Compound 3g] | 42,0991% | 37,841% | 36,5769% | 35,8117% | 33,9155% | – | 26.88 ± 0.043 | 53.42 ± 0.01 | – | – | – | – | – | – | 4.25 ± 0.005 | 72,7416% | 56,2268% | 50,6131% | 43,0757% | – | IC50 ([1]; read-out: IC50 MCF-7, MTT, mean ± SD, triplicate, 1-50 µM): 10.38 ± 0.08 µM; Cell viability percentage, HEK293-T ([3]; Conc. 1 (µM per method)): 63,41%; Cell viability percentage, HEK293-T ([3]; Conc. 5 (µM per method)): 46,5251%; Cell viability percentage, HEK293-T ([3]; Conc. 10 (µM per method)): 41,062%; Cell viability percentage, HEK293-T ([3]; Conc. 25 (µM per method)): 31,41%; Cell viability percentage, HEK293-T ([3]; Conc. 50 (µM per method)): 17,0502%; IC50 ([3]; MTT, normal cell line, mean ± SD, triplicate, 1-50 µM): 21.7 ± 0.13 µM; Cell viability percentage, A549 ([6]; Conc. 50 (µM per method)): 33,0296%; IC50 ([6]; read-out: IC50 A549, MTT, mean ± SD, triplicate, 1-50 µM): 18.63 ± 0.11 µM; IC50 ([7]; read-out: IC50 α-Glucosidase): 15.08 ± 0.08 µM |
